Measured values taken from US20070244190A1, “Neobritannilactone B and acetyl neobritannilactone B” (priority 2006, published 2007).

Experiments:
[1] = system: AGS cells; test: Apoptosis (sub-G1) by flow cytometry; type: cell-based, human; conditions: 24 h, mean ± SE
Experimental: (§1) Cell Culture and Chemicals. The COLO 205 and HT 29 cell lines were isolated from human colon adenocarcinoma (ATCC CCL-222 and HTB-38); human promyelocytic leukemia (HL-60) cells were obtained from American Type Culture Collection (Rockville, Md.). The human AGS gastric carcinoma cell lines (CCRC 60102) were obtained from the Food Industry Research and Development Institute (Hsinchu, Taiwan). Cell lines were grown at 37° C. in 5% CO2 dioxide atmosphere in RPMI for COLO 205, HT-29, and HL-60 cells and DMEM/F12 for AGS cells, all supplemented with 10% heat-inactivated fetal bovine serum (GIBCO BRL, Grand Island, N.Y.) (100 units/mL of penicillin, 100 μg/mL of streptomycin), and 2 mM L-glutamine (GIBCO BRL). Selected compounds were dissolved in dimethyl sulfoxide (DMSO). Propidium iodide was obtained from Sigma Chemical Co. (St. Louis, Mo.).
(§2) Flow Cytometry. Human cancer cells (2×10^5) were cultured in 60-mm Petri dishes and incubated for 24 h. The apoptotic cells (sub-G1) in the selected compounds and treated cells were measured by flow cytometry analysis. Then cells were harvested, washed with PBS, resuspended in 200 μL of PBS, and fixed in 800 μL of iced 100% ethanol at −20° C. After being left to stand overnight, the cell pellets were collected by centrifugation, resuspended in 1 mL of hypotonic buffer (0.5% Triton X-100 in PBS and 0.5 μg/mL RNase), and incubated at 37° C. for 30 min. Then 1 mL of propidium iodide solution (50 μg/mL) was added and the mixture was allowed to stand on ice for 30 min. Fluorescence emitted from the propidium iodide-DNA complex was quantitated after excitation of the fluorescent dye by FACScan cytometry (Becton Dickinson, San Jose, Calif.).
(§3) The compounds isolated from Inula were tested for their effects on the apoptotic ratio in human cancer cells.

[2] = system: COLO 205 cells; test: Apoptosis (sub-G1) by flow cytometry; type: cell-based, human; conditions: 24 h, mean ± SE
Experimental: as §1, §2, §3

[3] = system: HL-60 cells; test: Apoptosis (sub-G1) by flow cytometry; type: cell-based, human; conditions: 24 h, mean ± SE
Experimental: as §1, §2, §3

[4] = system: HT-29 cells; test: Apoptosis (sub-G1) by flow cytometry; type: cell-based, human; conditions: 24 h, mean ± SE
Experimental: as §1, §2, §3

[5] = system: human AGS gastric carcinoma cell lines; test: Cell survival assay (Example 3), trypan blue exclusion; type: cell-based; conditions: 24 h treatment, Example 3, FIG. 2, read-out: IC50, cell viability
Experimental: Cell Survival Assay. The human AGS gastric carcinoma cell lines (CCRC 60102) were maintained as described in Section 8.2 above. For assays, cells (5×10^4) were plated in 35-mm Petri dishes. The next day, the medium was changed and NAB and ANAB were added. Control cells were treated with DMSO to a final concentration of 0.05% (v/v). At the end of incubation, cells were harvested for cell count using a hemocytometer.
To test the effects of NAB and ANAB on cell viability, human gastric carcinoma cells were treated with different concentrations of NAB and ANAB. After 24 h treatment, the number of live cells was determined by trypan blue exclusion assay. FIG. 2. Both compounds were potent inhibitors of cell viability.

[6] = system: Bcl-XL in AGS cells; test: Western blot of Bcl-XL expression; type: cell-based, human; conditions: for Bcl-XL expression: various concentrations, 24 hours, FIG. 7A
Experimental: Western Blotting. […] The total proteins were extracted via the addition of 200 μL of gold lysis buffer (50 mM Tris-HCl, pH 7.4; 1 mM NaF; 150 mM NaCl; 1 mM EGTA; 1 mM phenylmethanesulfonyl fluoride; 1% NP-40; and 10 μg/mL leupeptin) to the cell pellets on ice for 30 min, followed by centrifugation at 10,000 g for 30 min at 4° C. The cytosolic fraction (supernatant) proteins were measured by Bio-Rad protein assay (Bio-Rad Laboratories, Munich, Germany). The samples (50 μg of protein) were mixed with 5× sample buffer containing 0.3 M Tris-HCl (pH 6.8), 25% 2-mercaptoethanol, 12% sodium dodecyl sulfate (SDS), 25 mM EDTA, 20% glycerol, and 0.1% bromophenol blue. The mixtures were boiled at 100° C. for 5 min and were subjected to 12% SDS-polyacrylamide minigels at a constant current of 20 mA. Subsequently, electrophoresis was ordinarily carried out on SDS-polyacrylamide gels. For electrophoresis, proteins on the gel were electrotransferred onto an immobile membrane (PVDF; Millipore Corp., Bedford, Mass.) with transfer buffer composed of 25 mM Tris-HCl (pH 8.9), 192 mM glycine, and 20% methanol. The membranes were blocked with blocking solution containing 20 mM Tris-HCl and then immunoblotted with primary antibodies including, anti-Bcl-XL, anti-β-actin (Transduction Laboratory, Lexington, Ky.), anti-PARP (UBI, Inc., Lake Placid, N.Y.), at room temperature for 1 h. Detection was achieved by measuring the chemiluminescence of blotting agent (ECL, Amersham Corp., Arlington Heights, Ill.), after exposure of the filters to KODAK X-OMAT films.
Several gene products are known to be important in controlling the apoptotic process. The imbalance of expression of anti- and pro-apoptotic proteins after a stimulus is one of the major mechanisms underlying the ultimate fate of cells in the apoptotic process. Bcl-XL expression in tumor cells, for instance, confers resistance against chemotherapeutic drugs. The expression of anti-apoptotic protein Bcl-XL was therefore examined in cancer cells treated with various concentrations of NAB or ANAB for 24 hours. […] FIG. 7A. […] FIG. 7B.

Compound	apoptotic ratio ([1]; 5 μM)	apoptotic ratio ([1]; 10 μM)	apoptotic ratio ([1]; 25 μM)	apoptotic ratio ([1]; 50 μM)	apoptotic ratio ([1]; 100 μM)	apoptotic ratio ([2]; COLO 205, 5 μM)	apoptotic ratio ([2]; COLO 205, 10 μM)	apoptotic ratio ([2]; COLO 205, 25 μM)	apoptotic ratio ([2]; COLO 205, 50 μM)	apoptotic ratio ([2]; COLO 205, 100 μM)	apoptotic ratio ([3]; HL-60, 5 μM)	apoptotic ratio ([3]; HL-60, 10 μM)	apoptotic ratio ([3]; HL-60, 25 μM)	apoptotic ratio ([3]; HL-60, 50 μM)	apoptotic ratio ([3]; HL-60, 100 μM)	apoptotic ratio ([4]; HT-29, 5 μM)	apoptotic ratio ([4]; HT-29, 10 μM)	apoptotic ratio ([4]; HT-29, 25 μM)	apoptotic ratio ([4]; HT-29, 50 μM)	apoptotic ratio ([4]; HT-29, 100 μM)	also measured
C=C1C(=O)O[C@H]2/C=C(\C)CC/C=C(\C)C[C@H](OC(C)=O)[C@@H]12 [Compound 4, acetyl neobritannilactone B]	6.16 ± 1.17%	7.87 ± 3.03%	9.89 ± 4.44%	13.64 ± 0.28%	43.11 ± 0.99%	15.47 ± 1.69%	34.72 ± 2.72%	76.87 ± 2.39%	96.92 ± 0.20%	98.66 ± 0.10%	22.93 ± 1.34%	39.71 ± 2.85%	95.17 ± 1.61%	97.74 ± 0.44%	98.05 ± .30%	20.38 ± .17%	47.56 ± 0.00%	69.70 ± .22%	81.43 ± 1.46%	82.47 ± 2.06%	apoptotic ratio ([1]; 25 μM, listed as ANAB): 9.89%; apoptotic ratio ([2]; COLO 205, 25 μM, listed as ANAB): 76.87%; apoptotic ratio ([3]; HL-60, 25 μM, listed as ANAB): 95.17%; apoptotic ratio ([4]; HT-29, 25 μM, listed as ANAB): 69.70%; IC50 [5]: 4.2 µM; Bcl-XL expression over time ([6]; at 12 h, 15 μM, FIG. 7B): marked and significant change in the expression of Bcl-XL; Bcl-XL expression [6]: dose-dependent decrease of Bcl-XL
C=C1C(=O)OC2C=C(C)CCC=C(C)CC(O)C12 (stereo not drawn) [Compound 3, 4-hydroxy-3α,4,5,8,9,11α-hexahydro-6,10-dimethyl-3-methylene-cyclodeca[b]furan-2(3H)-one]	9.55 ± 3.05%	8.66 ± 0.80%	11.78 ± 1.40%	15.95 ± 1.12%	19.22 ± 0.57%	10.73 ± 2.31%	14.12 ± 1.06%	41.62 ± 6.34%	89.11 ± 1.47%	96.81 ± 0.51%	9.82 ± 1.90%	21.93 ± 2.81%	77.57 ± 7.06%	96.94 ± 0.57%	98.29 ± 0.15%	13.58 ± 0.87%	24.46 ± .88%	66.54 ± 1.58%	82.27 ± 1.68%	87.02 ± 0.30%	apoptotic ratio ([1]; 25 μM, listed as NAB): 11.78%; apoptotic ratio ([2]; COLO 205, 25 μM, listed as NAB): 41.62%; apoptotic ratio ([3]; HL-60, 25 μM, listed as NAB): 77.54%; apoptotic ratio ([4]; HT-29, 25 μM, listed as NAB): 66.54%; IC50 [5]: 7.6 µM; Bcl-XL expression [6]: dose-dependent decrease of Bcl-XL
